Test results published in patent publication US8653110B2, “Active compound combination comprising azadirachtin and a substituted enaminocarbonyl compound” (Bayer CropScience AG, priority 2010, dated 2014).

What was measured:
Type in all cases: in vivo
Spodoptera exigua = Spodoptera exigua caterpillars on carnations, feeding damage (Example 1); conditions: for Day 7 reduction of feeding damage in %: Day 7, (I-1) 150, azadirachtin 30, (I-1)+azadirachtin 150+30, imidacloprid 100 g of active compound/ha; for Day 32 reduction of feeding damage in %: Day 32, (I-1) 150, azadirachtin 30, (I-1)+azadirachtin 150+30, imidacloprid 100 g of active compound/ha; for Day 40 reduction of feeding damage in %: Day 40, (I-1) 150, azadirachtin 30, (I-1)+azadirachtin 150+30, imidacloprid 100 g of active compound/ha
Procedure: Example 1 describes the effect of the combination according to the invention on caterpillars of the owlet moth (Spodoptera exigua) on carnations (Dianthus caryophyllus). Azadirachtin was employed as NeemAzal® from Trifolio GmbH. The test was carried out according to EPPO guidelines PP 1/152 (2), PP 1/181 (3), PP 1/135 (3) and PP 1/210 (1) with 4 repetitions of in each case 10 plants. At the start of the infection, the plants were treated as follows: • 1. untreated • 2. compound (I-1) as SL 200 (17% strength), 150 g of active compound/ha • 3. azadirachtin 30 g of active compound/ha • 4. compound (I-1) as SL 200+azadirachtin, 150+30 g of active compound/ha • 5. positive control: imidacloprid 100 g of active compound/ha
The spray solution was prepared by mixing commercial formulations and using water to adjust to the concentration mentioned. The application rate was 1000 l/ha. 3 Applications were carried out at intervals of 10-14 days. The feeding damage caused by the caterpillars on the carnation leaves was scored at weekly intervals.

[1] = system: Trialeurodes vaporariorum; experiment: Whiteflies on tomatoes, further test (Example 6)
Procedure: This example describes a further test with the formulation according to the invention against whiteflies (Trialeurodes vaporariorum) on tomatoes (Lycopersicon esculentum). The test was carried out under GEP according to EPPO guideline PP 1/36(2) with 4 repetitions of in each case 5 plants. At the start of the infection, the plants were treated as follows: • 1. untreated • 2. compound (I-1) as SL 200 (compound according to formula (I-1), 17% strength), 50 g of active compound/ha • 3. azadirachtin 15 g of active compound/ha, NeemAzal® • 4. azadirachtin 5 g of active compound/ha, NeemAzal® 5. compound (I-1) as SL 200+azadirachtin, 50+15 g of active compound/ha • 6. compound (I-1) as SL 200+azadirachtin, 50+5 g of active compound/ha • 7. positive control imidacloprid 100 g of active compound/ha
The spray solution was prepared by mixing commercial formulations and using water to adjust to the concentration mentioned. The application rate was 1000 l/ha. 2 applications were carried out at intervals of 10 days. The number of adult flies and the number of larvae were scored on days 2 to 32 after the first application. What is shown is the effect of the products, which becomes evident in a reduction of the number of insects or larvae compared to the untreated control. Imidacloprid was also tested, as positive control.

Tetranychus urticae = experiment: Greenhouse red spider mite on roses (Example 7)
Procedure: Example 7 describes the effect of the combination according to the invention on the greenhouse red spider mite (Tetranychus urticae) on roses. The test was carried out in a greenhouse under GEP according to EPPO guideline PP 1/168(2) with 4 repetitions of in each case 4 plants. At the start of the infection, the plants were treated as follows: • 1. untreated • 2. compound (I-1) as SL 200 (compound according to formula (I-1), 17% strength), 50 g of active compound/ha • 3. azadirachtin 30 g of active compound/ha, NeemAzal® • 4. azadirachtin 5 g of active compound/ha, NeemAzal® • 5. compound (I-1) as SL 200+azadirachtin, 50+30 g of active compound/ha • 6. compound (I-1) as SL 200+azadirachtin, 50+5 g of active compound/ha • 7. positive control imidacloprid 100 g of active compound/ha
The spray solution was prepared by mixing commercial formulations and using water to adjust to the concentration mentioned. The application rate was 1000 l/ha. 2 applications were carried out at intervals of 14 days. The number of spider mites on days 2 to 32 after the first application was scored. What is shown is the effect of the products, which becomes evident in a reduction of the number of spider mites compared to the untreated control.

Spodoptera frugiperda = experiment: Fall armyworm caterpillars on maize, feeding damage (Example 8); conditions: reduction of feeding damage
Phyllotreta nigripes = experiment: Turnip flea beetle on cabbage (Example 10); conditions: (I-1) 150, azadirachtin 30, (I-1)+azadirachtin 150+30, imidacloprid 100 g/ha
Procedure: Example 10 describes the effect of the combination according to the invention on caterpillars of the turnip flea beetle Phyllotreta nigripes on cabbage. The test was carried out according to EPPO guidelines PP 1/210(1), PP 1/152 (2), PP 1/181 (3) and PP 1/135 with 4 repetitions of in each case 10 plants. The plants were treated as follows: • 1. untreated • 2. compound (I-1) as SL 200 (compound according to formula (I-1), 17% strength), 150 g of active compound/ha • 3. azadirachtin 30 g of active compound/ha, NeemAzal® • 4. compound (I-1) as SL 200+azadirachtin, 150+30 g of active compound/ha • 5. positive control imidacloprid 100 g of active compound/ha
The spray solution was prepared by mixing commercial formulations and using water to adjust to the concentration mentioned. The application rate was 1000 l/ha. 2 applications were carried out at intervals of 14 days. The number of live caterpillars on days 7 to 32 after the first application was scored. What is shown is the effect of the products, which becomes evident in a reduction of the number of caterpillars compared to the untreated control.

[2] = Day 2, (I-1) 50, azadirachtin 15, (I-1)+azadirachtin 50+15, imidacloprid 100 g/ha
[3] = Day 7, (I-1) 50, azadirachtin 15, (I-1)+azadirachtin 50+15, imidacloprid 100 g/ha
[4] = Day 14, (I-1) 50, azadirachtin 15, (I-1)+azadirachtin 50+15, imidacloprid 100 g/ha
[5] = Day 21, (I-1) 50, azadirachtin 15, (I-1)+azadirachtin 50+15, imidacloprid 100 g/ha
[6] = Days 28-32, (I-1) 50, azadirachtin 15, (I-1)+azadirachtin 50+15, imidacloprid 100 g/ha
[7] = Day 2, (I-1) 50, azadirachtin 30, (I-1)+azadirachtin 50+30, imidacloprid 100 g/ha
[8] = Day 7, (I-1) 50, azadirachtin 30, (I-1)+azadirachtin 50+30, imidacloprid 100 g/ha
[9] = Day 14, (I-1) 50, azadirachtin 30, (I-1)+azadirachtin 50+30, imidacloprid 100 g/ha
[10] = Day 21, (I-1) 50, azadirachtin 30, (I-1)+azadirachtin 50+30, imidacloprid 100 g/ha
[11] = Days 28-32, (I-1) 50, azadirachtin 30, (I-1)+azadirachtin 50+30, imidacloprid 100 g/ha
[12] = Days 35-42, (I-1) 50, azadirachtin 30, (I-1)+azadirachtin 50+30, imidacloprid 100 g/ha
[13] = Day 2, azadirachtin 5, (I-1)+azadirachtin 50+5 g/ha
[14] = Day 7, azadirachtin 5, (I-1)+azadirachtin 50+5 g/ha
[15] = Day 14, azadirachtin 5, (I-1)+azadirachtin 50+5 g/ha
[16] = Day 21, azadirachtin 5, (I-1)+azadirachtin 50+5 g/ha
[17] = Days 28-32, azadirachtin 5, (I-1)+azadirachtin 50+5 g/ha

O=C1C=C(N(Cc2ccc(Cl)nc2)CC(F)F)CO1 [(I-1), 4-{[(6-chloropyrid-3-yl)methyl](2,2-difluoroethyl)amino}furan-2(5H)-one]
Day 7 reduction of feeding damage in % (Spodoptera exigua): 0%
Day 32 reduction of feeding damage in % (Spodoptera exigua): 49%
Day 40 reduction of feeding damage in % (Spodoptera exigua): 88%
Activity against adults [%] [1, 2]: 86%
Activity against larvae [%] [1, 2]: 0%
Activity against adults [%] [1, 3]: 88%
Activity against larvae [%] [1, 3]: 0%
Activity against adults [%] [1, 4]: 93%
Activity against larvae [%] [1, 4]: 18%
Activity against adults [%] [1, 5]: 96%
Activity against larvae [%] [1, 5]: 4%
Activity against adults [%] [1, 6]: 67%
Activity against larvae [%] [1, 6]: 68%
Activity against Tetranychus urticae [%] (Tetranychus urticae; [7]): 28%
Activity against Tetranychus urticae [%] (Tetranychus urticae; [8]): 15%
Activity against Tetranychus urticae [%] (Tetranychus urticae; [9]): 43%
Activity against Tetranychus urticae [%] (Tetranychus urticae; [10]): 12%
Activity against Tetranychus urticae [%] (Tetranychus urticae; [11]): 15%
Activity against Spodoptera frugiperda [%] (Spodoptera frugiperda; [8]): 0%
Activity against Spodoptera frugiperda [%] (Spodoptera frugiperda; [9]): 0%
Activity against Spodoptera frugiperda [%] (Spodoptera frugiperda; [10]): 0%
Activity against Spodoptera frugiperda [%] (Spodoptera frugiperda; [11]): 0%
Activity against Spodoptera frugiperda [%] (Spodoptera frugiperda; [12]): 0%
Activity against Phyllotreta nigripes [%] (Phyllotreta nigripes; Day 7): 0%
Activity against Phyllotreta nigripes [%] (Phyllotreta nigripes; Days 14-16): 9.5%
Activity against Phyllotreta nigripes [%] (Phyllotreta nigripes; Days 21-25): 7.4%
Activity against Phyllotreta nigripes [%] (Phyllotreta nigripes; Days 28-32): 2.8%

C/C=C(\C)C(=O)O[C@H]1C[C@@H](OC(C)=O)[C@@]2(C(=O)OC)CO[C@H]3[C@@H](O)[C@@](C)([C@]45O[C@@]4(C)[C@H]4C[C@@H]5O[C@@H]5OC=C[C@@]54O)[C@H]4[C@]1(CO[C@]4(O)C(=O)OC)[C@@H]32 [azadirachtin]
Day 7 reduction of feeding damage in % (Spodoptera exigua): 0%
Day 32 reduction of feeding damage in % (Spodoptera exigua): 92%
Day 40 reduction of feeding damage in % (Spodoptera exigua): 100%
Activity against adults [%] [1, 2]: 57%
Activity against larvae [%] [1, 2]: 0%
Activity against adults [%] [1, 13]: 41%
Activity against larvae [%] [1, 13]: 0%
Activity against adults [%] [1, 3]: 64%
Activity against larvae [%] [1, 3]: 0%
Activity against adults [%] [1, 14]: 41%
Activity against larvae [%] [1, 14]: 0%
Activity against adults [%] [1, 4]: 65%
Activity against larvae [%] [1, 4]: 20%
Activity against adults [%] [1, 15]: 40%
Activity against larvae [%] [1, 15]: 0%
Activity against adults [%] [1, 5]: 76%
Activity against larvae [%] [1, 5]: 32%
Activity against adults [%] [1, 16]: 47%
Activity against larvae [%] [1, 16]: 0%
Activity against adults [%] [1, 6]: 76%
Activity against larvae [%] [1, 6]: 37%
Activity against adults [%] [1, 17]: 40%
Activity against larvae [%] [1, 17]: 0%
Activity against Tetranychus urticae [%] (Tetranychus urticae; [7]): 21%
Activity against Tetranychus urticae [%] (Tetranychus urticae; [13]): 30%
Activity against Tetranychus urticae [%] (Tetranychus urticae; [8]): 16%
Activity against Tetranychus urticae [%] (Tetranychus urticae; [14]): 0%
Activity against Tetranychus urticae [%] (Tetranychus urticae; [9]): 20%
Activity against Tetranychus urticae [%] (Tetranychus urticae; [15]): 10%
Activity against Tetranychus urticae [%] (Tetranychus urticae; [10]): 7%
Activity against Tetranychus urticae [%] (Tetranychus urticae; [16]): 19%
Activity against Tetranychus urticae [%] (Tetranychus urticae; [11]): 0%
Activity against Tetranychus urticae [%] (Tetranychus urticae; [17]): 6%
Activity against Spodoptera frugiperda [%] (Spodoptera frugiperda; [8]): 0%
Activity against Spodoptera frugiperda [%] (Spodoptera frugiperda; [14]): 0%
Activity against Spodoptera frugiperda [%] (Spodoptera frugiperda; [9]): 7%
Activity against Spodoptera frugiperda [%] (Spodoptera frugiperda; [15]): 29%
Activity against Spodoptera frugiperda [%] (Spodoptera frugiperda; [10]): 53%
Activity against Spodoptera frugiperda [%] (Spodoptera frugiperda; [16]): 61%
Activity against Spodoptera frugiperda [%] (Spodoptera frugiperda; [11]): 84%
Activity against Spodoptera frugiperda [%] (Spodoptera frugiperda; [17]): 77%
Activity against Spodoptera frugiperda [%] (Spodoptera frugiperda; [12]): 80%
Activity against Spodoptera frugiperda [%] (Spodoptera frugiperda; Days 35-42, azadirachtin 5, (I-1)+azadirachtin 50+5 g/ha): 81%
Activity against Phyllotreta nigripes [%] (Phyllotreta nigripes; Day 7): 29%
Activity against Phyllotreta nigripes [%] (Phyllotreta nigripes; Days 14-16): 51%
Activity against Phyllotreta nigripes [%] (Phyllotreta nigripes; Days 21-25): 35%
Activity against Phyllotreta nigripes [%] (Phyllotreta nigripes; Days 28-32): 34%
